Laboratory results taken from patent EP1965829B1, “ALTERNATIVE OXIDASE AND USES THEREOF” (Tampereen yliopisto, priority 2005, dated 2007).

Experiments:
Flp-In™ T-REx™-293 cells [1] = assay: Succinate oxidation by digitonin-permeabilized cells, Clark oxygen electrode; type: cell-based, human; conditions: AOX-induced cells
Drosophila mitochondria = type: biochemical, Drosophila melanogaster
Flp-In™ T-REx™-293 cells [2] = assay: Respiration of digitonin-permeabilized transduced or transfected cells; type: cell-based, human; conditions: 10 µM n-propyl gallate

CCCOC(=O)c1cc(O)c(O)c(O)c1 [n-propyl gallate]
inhibition of cyanide-resistant succinate oxidation (Flp-In™ T-REx™-293 cells [1]; 100 µM propyl gallate added after cyanide): fully inhibited
inhibition of oxygen uptake (Flp-In™ T-REx™-293 cells [1]; propyl gallate in the absence of cyanide): 5%
effect of AOX inhibitors on respiration (Drosophila mitochondria): only a small effect
sensitivity of residual cyanide-insensitive respiratory activity to AOX inhibitors (Drosophila mitochondria): sensitive
inhibition of residual respiration in the presence of cyanide (Flp-In™ T-REx™-293 cells [2]; pWPI-AOX-transduced cells): completely inhibited
inhibition of respiration in the presence of cyanide (Flp-In™ T-REx™-293 cells [2]; pcDNA5-AOX-transfected cells): almost completely inhibited
